Source: BigSolDB 2.1

CCCCCCCCCCCC(=O)O
Settings | solubility (mole fraction)
in 1-bromopropane, 280.6 K | 0.0756
in 1-bromopropane, 283.8 K | 0.0997
in 1-bromopropane, 287.8 K | 0.15
in 1-bromopropane, 289.9 K | 0.185
in 1-bromopropane, 293.1 K | 0.239
in 1-bromopropane, 295.2 K | 0.275
in 1-bromopropane, 298.8 K | 0.34
in 1-bromopropane, 301.4 K | 0.404
in 1-bromopropane, 304.3 K | 0.473
in 1-bromopropane, 305.3 K | 0.528
in 1-bromopropane, 307.3 K | 0.573
in 1-bromopropane, 309.3 K | 0.645
in 1-bromopropane, 310.5 K | 0.709
in 1-bromopropane, 312.5 K | 0.775
in 1-bromopropane, 313.8 K | 0.859
in acetone, 286.6 K | 0.0794
in acetone, 290.1 K | 0.107
in acetone, 293.1 K | 0.146
in acetone, 293.3 K | 0.146
in acetone, 298 K | 0.224
in acetone, 299.9 K | 0.283
in acetone, 301.9 K | 0.34
in acetone, 303.4 K | 0.389
in acetone, 305.1 K | 0.449
in acetone, 306.7 K | 0.512
in acetone, 308.1 K | 0.568
in acetone, 310.9 K | 0.678
in acetone, 312 K | 0.735
in acetone, 313 K | 0.795
in acetone, 314.4 K | 0.857
in acetone, 315.2 K | 0.895
in isopropanol, 279.2 K | 0.0797
in isopropanol, 282.7 K | 0.104
in isopropanol, 285.9 K | 0.13
in isopropanol, 289.1 K | 0.164
in isopropanol, 293.1 K | 0.22
in isopropanol, 297.1 K | 0.283
in isopropanol, 301 K | 0.361
in isopropanol, 303 K | 0.409
in isopropanol, 304.4 K | 0.458
in isopropanol, 306.1 K | 0.513
in isopropanol, 308.1 K | 0.568
in isopropanol, 309.8 K | 0.648
in isopropanol, 311.2 K | 0.712
in isopropanol, 312.6 K | 0.777
in isopropanol, 314.1 K | 0.842
in isopropanol, 314.9 K | 0.896
in n-hexane, 279.9 K | 0.0292
in n-hexane, 282.5 K | 0.0408
in n-hexane, 283.6 K | 0.0502
in n-hexane, 286.9 K | 0.0736
in n-hexane, 289.7 K | 0.108
in n-hexane, 291.7 K | 0.134
in n-hexane, 293.9 K | 0.171
in n-hexane, 296.4 K | 0.223
in n-hexane, 297.5 K | 0.252
in n-hexane, 300.1 K | 0.322
in n-hexane, 301.8 K | 0.38
in n-hexane, 303.8 K | 0.442
in n-hexane, 305.9 K | 0.519
in n-hexane, 308 K | 0.593
in n-hexane, 311 K | 0.711
in n-hexane, 312.5 K | 0.777
in n-hexane, 314.2 K | 0.858
in n-propanol, 287.1 K | 0.13
in n-propanol, 289.6 K | 0.153
in n-propanol, 292.8 K | 0.192
in n-propanol, 295.1 K | 0.225
in n-propanol, 297.9 K | 0.275
in n-propanol, 299.9 K | 0.318
in n-propanol, 301.5 K | 0.353
in n-propanol, 303.5 K | 0.406
in n-propanol, 304.7 K | 0.44
in n-propanol, 306.5 K | 0.509
in n-propanol, 307.4 K | 0.541
in n-propanol, 308.7 K | 0.597
in n-propanol, 309.9 K | 0.644
in n-propanol, 310.7 K | 0.69
in n-propanol, 312.1 K | 0.749
in n-propanol, 313.4 K | 0.818
in n-propanol, 314.2 K | 0.873
in trichloroethylene, 282 K | 0.144
in trichloroethylene, 283.1 K | 0.157
in trichloroethylene, 284.6 K | 0.171
in trichloroethylene, 288.4 K | 0.216
in trichloroethylene, 291 K | 0.258
in trichloroethylene, 293 K | 0.295
in trichloroethylene, 296 K | 0.337
in trichloroethylene, 298.2 K | 0.389
in trichloroethylene, 301.2 K | 0.441
in trichloroethylene, 303.3 K | 0.516
in trichloroethylene, 306.7 K | 0.591
in trichloroethylene, 308.6 K | 0.666
in trichloroethylene, 310.5 K | 0.725
in trichloroethylene, 312.5 K | 0.806
in trichloroethylene, 313.5 K | 0.855
